Target: T1, human PAR-2 (hPAR-2) receptor (Homo sapiens, UniProt P55085)
T1 construct: expressed in HEK-293 cells in an endogenous manner; endogenous in cells; host or cells: HEK-293
T1 sequence (P55085 26-397): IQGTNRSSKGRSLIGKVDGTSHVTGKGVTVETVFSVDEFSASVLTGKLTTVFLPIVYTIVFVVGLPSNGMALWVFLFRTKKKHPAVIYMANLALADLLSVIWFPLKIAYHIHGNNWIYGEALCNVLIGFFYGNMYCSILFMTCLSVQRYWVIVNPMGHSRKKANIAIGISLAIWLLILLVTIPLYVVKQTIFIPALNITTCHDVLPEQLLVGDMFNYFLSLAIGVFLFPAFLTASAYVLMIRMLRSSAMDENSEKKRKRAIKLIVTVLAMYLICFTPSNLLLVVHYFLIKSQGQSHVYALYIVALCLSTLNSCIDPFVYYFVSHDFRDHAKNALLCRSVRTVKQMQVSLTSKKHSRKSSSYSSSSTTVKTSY
Test: In vitro human PAR-2 functional antagonist activity using calcium assays
Format: cell-based
Conditions: hPAR-2 endogenously expressed in HEK-293 cells; stimulated by 2-Furoyl-LIGRLO-NH2 peptide; Fluo4AM intracellular calcium, FLIPR Tetra
Summary of the method: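 Antagonism was measured as reduced calcium response to 2-Furoyl-LIGRLO-NH2 (dosed at its 80%-of-maximum concentration), recorded for 5 min. This followed a 10 min compound pre-incubation on Fluo4AM-loaded HEK-293 cells expressing native hPAR-2. Signals were normalised to buffer and agonist-alone controls.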

Structure (SMILES) | IC50 [nM]
CC1(C)CN(c2ccc(Cl)c(Cl)c2)c2ncc(C(=O)N3CCN(c4ccc(CC(=O)O)cn4)CC3(C)C)nc21 [Example 221, 2-(6-(4-(5-(3,4-dichlorophenyl)-7,7-dimethyl-6,7-dihydro-5H-pyrrolo[2,3-b]pyrazine-2-carbonyl)-3,3-dimethylpiperazin-1-yl)pyridin-3-yl)acetic acid] | < 500
Cc1cc(N2CCN(C(=O)c3cnc4c(n3)C3(CCCC3)CN4c3ccc(F)c(F)c3)C(C)(C)C2)nc(C)c1C(=O)O [Example 223, 6-(4-(5′-(3,4-difluorophenyl)-5′,6′-dihydrospiro[cyclopentane-1,7′-pyrrolo[2,3-b]pyrazine]-2′-carbonyl)-3,3-dimethylpiperazin-1-yl)-2,4-dimethylnicotinic acid] | < 500
CC1(C)CN(c2ccc(CC(=O)O)cn2)CCN1C(=O)c1cnc2c(n1)C1(CCCC1)CN2c1ccc(F)c(F)c1 [Example 229, 2-(6-(4-(5′-(3,4-difluorophenyl)-5′,6′-dihydrospiro[cyclopentane-1,7′-pyrrolo[2,3-b]pyrazine]-2′-carbonyl)-3,3-dimethylpiperazin-1-yl)pyridin-3-yl)acetic acid] | < 500
Cc1cc(N2CCN(C(=O)c3cnc4c(n3)C3(CN4c4ccc(F)c(F)c4)CC(C)(C)C3)C(C)(C)C2)nc(C)c1C(=O)O [Example 233, 6-(4-(5′-(3,4-difluorophenyl)-3,3-dimethyl-5′,6′-dihydrospiro[cyclobutane-1,7′-pyrrolo[2,3-b]pyrazine]-2′-carbonyl)-3,3-dimethylpiperazin-1-yl)-2,4-dimethylnicotinic acid] | < 500
Cc1cc(N2CCN(C(=O)c3cnc4c(n3)C3(CCC3)CN4c3ccc(Cl)c(F)c3)C(C)(C)C2)nc(C)c1C(=O)O [Example 237, 6-(4-(5′-(4-chloro-3-fluorophenyl)-5′,6′-dihydrospiro[cyclobutane-1,7′-pyrrolo[2,3-b]pyrazine]-2′-carbonyl)-3,3-dimethylpiperazin-1-yl)-2,4-dimethylnicotinic acid] | < 500
CC1(C)CN(c2ccc(CC(=O)O)cn2)CCN1C(=O)c1cnc2c(n1)C1(CCCC1)CN2c1ccc(Cl)c(F)c1 [Example 243, 2-(6-(4-(5′-(4-chloro-3-fluorophenyl)-5′,6′-dihydrospiro[cyclopentane-1,7′-pyrrolo[2,3-b]pyrazine]-2′-carbonyl)-3,3-dimethylpiperazin-1-yl)pyridin-3-yl)acetic acid] | < 500
Cc1cc(N2CCN(C(=O)c3cnc4c(n3)C3(CN4c4ccc(Cl)c(F)c4)CC(C)(C)C3)C(C)(C)C2)nc(C)c1C(=O)O [Example 247, 6-(4-(5′-(4-chloro-3-fluorophenyl)-3,3-dimethyl-5′,6′-dihydrospiro[cyclobutane-1,7′-pyrrolo[2,3-b]pyrazine]-2′-carbonyl)-3,3-dimethylpiperazin-1-yl)-2,4-dimethylnicotinic acid] | < 500
COc1cc2c(nc1C(=O)N1CCN(c3ccc(CC(=O)O)cn3)CC1(C)C)C(C)(C)CN2c1ccc(Cl)c(F)c1 [Example 255, 2-(6-(4-(1-(4-chloro-3-fluorophenyl)-6-methoxy-3,3-dimethyl-2,3-dihydro-1H-pyrrolo[3,2-b]pyridine-5-carbonyl)-3,3-dimethylpiperazin-1-yl)pyridin-3-yl)acetic acid] | > 10000
CC(C)CN1CC(C)(c2ccc(Cl)c(F)c2)c2ccc(C(=O)N3CCN(c4ccc(CC(=O)O)cn4)CC3(C)C)nc21 (stereo not shown) [Example 257, 2-(6-(4-(3-(4-chloro-3-fluorophenyl)-1-isobutyl-3-methyl-2,3-dihydro-1H-pyrrolo[2,3-b]pyridine-6-carbonyl)-3,3-dimethylpiperazin-1-yl)pyridin-3-yl)acetic acid] | 500 to 10000
COC(=O)CCCCCCC(=O)N1CCN(C(=O)c2cnc3c(n2)C2(CN3c3ccc(Cl)c(F)c3)CC(C)(C)C2)C(C)(C)C1 [Example 259, methyl 8-(4-(5′-(4-chloro-3-fluorophenyl)-3,3-dimethyl-5′,6′-dihydrospiro[cyclobutane-1,7′-pyrrolo[2,3-b]pyrazine]-2′-carbonyl)-3,3-dimethylpiperazin-1-yl)-8-oxooctanoate] | < 500
CC1(C)CC2(CN(c3ccc(Cl)c(F)c3)c3ncc(C(=O)N4CCN(C(=O)CCCCCCC(=O)O)CC4(C)C)nc32)C1 [Example 260, 8-(4-(5′-(4-chloro-3-fluorophenyl)-3,3-dimethyl-5′,6′-dihydrospiro[cyclobutane-1,7′-pyrrolo[2,3-b]pyrazine]-2′-carbonyl)-3,3-dimethylpiperazin-1-yl)-8-oxooctanoic acid] | < 500

Other lines, results leading:

IC50 [nM] | Structure (SMILES)
< 500 | CC1(C)CN(c2ccc(C(F)(F)F)c(Cl)c2)c2ncc(C(=O)N3CCN(c4ccc(CC(=O)O)cn4)CC3(C)C)nc21 [Example 219, 2-(6-(4-(5-(3-chloro-4-(trifluoromethyl)phenyl)-7,7-dimethyl-6,7-dihydro-5H-pyrrolo[2,3-b]pyrazine-2-carbonyl)-3,3-dimethylpiperazin-1-yl)pyridin-3-yl)acetic acid]
< 500 | COCC1CC2(C1)CN(c1ccc(Cl)c(F)c1)c1ccc(C(=O)N3CCN(c4cc(C)c(C(=O)O)c(C)n4)CC3(C)C)nc12 (stereo not shown) [Example 225, 6-(4-(1′-(4-chloro-3-fluorophenyl)-3-(methoxymethyl)-1′,2′-dihydrospiro[cyclobutane-1,3′-pyrrolo[3,2-b]pyridine]-5′-carbonyl)-3,3-dimethylpiperazin-1-yl)-2,4-dimethylnicotinic acid]
< 500 | CC1(C)CN(c2ccc(CC(=O)O)cn2)CCN1C(=O)c1cnc2c(n1)C1(CCC1)CN2c1ccc(Cl)c(F)c1 [Example 231, 2-(6-(4-(5′-(4-chloro-3-fluorophenyl)-5′,6′-dihydrospiro[cyclobutane-1,7′-pyrrolo[2,3-b]pyrazine]-2′-carbonyl)-3,3-dimethylpiperazin-1-yl)pyridin-3-yl)acetic acid]
< 500 | Cc1cc(N2CCN(C(=O)c3cnc4c(n3)C3(CN4c4cc(F)c(F)c(F)c4)CC(C)(C)C3)C(C)(C)C2)nc(C)c1C(=O)O [Example 235, 6-(4-(3,3-dimethyl-5′-(3,4,5-trifluorophenyl)-5′,6′-dihydrospiro[cyclobutane-1,7′-pyrrolo[2,3-b]pyrazine]-2′-carbonyl)-3,3-dimethylpiperazin-1-yl)-2,4-dimethylnicotinic acid]
< 500 | COCC1CC2(C1)CN(c1ccc(Cl)c(F)c1)c1ccc(C(=O)N3CCN(c4ccc(CC(=O)O)cn4)CC3(C)C)nc12 (stereo not shown) [Example 239, 2-(6-(4-(1′-(4-chloro-3-fluorophenyl)-3-(methoxymethyl)-1′,2′-dihydrospiro[cyclobutane-1,3′-pyrrolo[3,2-b]pyridine]-5′-carbonyl)-3,3-dimethylpiperazin-1-yl)pyridin-3-yl)acetic acid]
< 500 | CC1(C)CN(c2cc(F)c(Cl)c(F)c2)c2ncc(C(=O)N3CCN(c4ccc(CC(=O)O)cn4)CC3(C)C)nc21 [Example 241, 2-(6-(4-(5-(4-chloro-3,5-difluorophenyl)-7,7-dimethyl-6,7-dihydro-5H-pyrrolo[2,3-b]pyrazine-2-carbonyl)-3,3-dimethylpiperazin-1-yl)pyridin-3-yl)acetic acid]
< 500 | CC1(C)CC2(CN(c3ccc(F)c(F)c3)c3ncc(C(=O)N4CCN(c5ccc(CC(=O)O)cn5)CC4(C)C)nc32)C1 [Example 245, 2-(6-(4-(5′-(3,4-difluorophenyl)-3,3-dimethyl-5′,6′-dihydrospiro[cyclobutane-1,7′-pyrrolo[2,3-b]pyrazine]-2′-carbonyl)-3,3-dimethylpiperazin-1-yl)pyridin-3-yl)acetic acid]
< 500 | Cc1cc(N2CCN(C(=O)c3cnc4c(n3)C(C)(C)CN4c3ccc(Cl)c(Cl)c3)C(C)(C)C2)nc(C)c1C(=O)O [Example 249, 6-(4-(5-(3,4-dichlorophenyl)-7,7-dimethyl-6,7-dihydro-5H-pyrrolo[2,3-b]pyrazine-2-carbonyl)-3,3-dimethylpiperazin-1-yl)-2,4-dimethylnicotinic acid]
< 500 | Cc1ccc(N2CC(C)(C)c3nc(C(=O)N4CCN(c5ccc(CC(=O)O)cn5)CC4(C)C)cnc32)cc1Cl [Example 251, 2-(6-(4-(5-(3-chloro-4-methylphenyl)-7,7-dimethyl-6,7-dihydro-5H-pyrrolo[2,3-b]pyrazine-2-carbonyl)-3,3-dimethylpiperazin-1-yl)pyridin-3-yl)acetic acid]
500 to 10000 | COC1c2nc(C(=O)N3CCN(c4ccc(CC(=O)O)cn4)CC3(C)C)ccc2N(c2ccc(Cl)c(F)c2)CC1(C)C (stereo not shown) [Example 253, 2-(6-(4-(5-(4-chloro-3-fluorophenyl)-8-methoxy-7,7-dimethyl-5,6,7,8-tetrahydro-1,5-naphthyridine-2-carbonyl)-3,3-dimethylpiperazin-1-yl)pyridin-3-yl)acetic acid]
500 to 10000 | CC1(C)CN(c2ccc(Cl)c(F)c2)c2cc(O)c(C(=O)N3CCN(c4ccc(CC(=O)O)cn4)CC3(C)C)nc21 [Example 258, 2-(6-(4-(1-(4-chloro-3-fluorophenyl)-6-hydroxy-3,3-dimethyl-2,3-dihydro-1H-pyrrolo[3,2-b]pyridine-5-carbonyl)-3,3-dimethylpiperazin-1-yl)pyridin-3-yl)acetic acid]

Source: patent US20250320224A1 (DOMAIN THERAPEUTICS, priority 2022, published 2025)
